Results: patent US9642831B2, “Substituted chromanes and method of use” (AbbVie S.á.r.l., priority 2014, dated 2017)

Biological target: F508delCFTR (Homo sapiens, UniProt P13569, DEL508-508)
Experiment: Cell Surface Expression-Horse Radish Peroxidase (CSE-HRP) assay
Format: cell-based
Parameters: expressed in transfected cells; host or cells: CFBE41o- human lung derived epithelial cell line, doxycycline-inducible
Conditions: CFBE4lo-F508delCFTR-HRP cells; for EC50: 18-24 hours at 33° C., 8-point curve, highest concentration 20 μM, luminescence readout; for Emax: maximum % activity at any tested concentration, normalized to on-plate positive control (3 μM Example 1)
Outline: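 Following 18-24 h compound exposure at 33° C. Expression was doxycycline-induced beforehand. % activity versus DMSO and a 3 μM corrector control gave maximum activity and EC50 from a variable-Hill sigmoidal fit.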

Sequence of F508delCFTR (P13569 with tags, fused parts or gaps DEL508-508): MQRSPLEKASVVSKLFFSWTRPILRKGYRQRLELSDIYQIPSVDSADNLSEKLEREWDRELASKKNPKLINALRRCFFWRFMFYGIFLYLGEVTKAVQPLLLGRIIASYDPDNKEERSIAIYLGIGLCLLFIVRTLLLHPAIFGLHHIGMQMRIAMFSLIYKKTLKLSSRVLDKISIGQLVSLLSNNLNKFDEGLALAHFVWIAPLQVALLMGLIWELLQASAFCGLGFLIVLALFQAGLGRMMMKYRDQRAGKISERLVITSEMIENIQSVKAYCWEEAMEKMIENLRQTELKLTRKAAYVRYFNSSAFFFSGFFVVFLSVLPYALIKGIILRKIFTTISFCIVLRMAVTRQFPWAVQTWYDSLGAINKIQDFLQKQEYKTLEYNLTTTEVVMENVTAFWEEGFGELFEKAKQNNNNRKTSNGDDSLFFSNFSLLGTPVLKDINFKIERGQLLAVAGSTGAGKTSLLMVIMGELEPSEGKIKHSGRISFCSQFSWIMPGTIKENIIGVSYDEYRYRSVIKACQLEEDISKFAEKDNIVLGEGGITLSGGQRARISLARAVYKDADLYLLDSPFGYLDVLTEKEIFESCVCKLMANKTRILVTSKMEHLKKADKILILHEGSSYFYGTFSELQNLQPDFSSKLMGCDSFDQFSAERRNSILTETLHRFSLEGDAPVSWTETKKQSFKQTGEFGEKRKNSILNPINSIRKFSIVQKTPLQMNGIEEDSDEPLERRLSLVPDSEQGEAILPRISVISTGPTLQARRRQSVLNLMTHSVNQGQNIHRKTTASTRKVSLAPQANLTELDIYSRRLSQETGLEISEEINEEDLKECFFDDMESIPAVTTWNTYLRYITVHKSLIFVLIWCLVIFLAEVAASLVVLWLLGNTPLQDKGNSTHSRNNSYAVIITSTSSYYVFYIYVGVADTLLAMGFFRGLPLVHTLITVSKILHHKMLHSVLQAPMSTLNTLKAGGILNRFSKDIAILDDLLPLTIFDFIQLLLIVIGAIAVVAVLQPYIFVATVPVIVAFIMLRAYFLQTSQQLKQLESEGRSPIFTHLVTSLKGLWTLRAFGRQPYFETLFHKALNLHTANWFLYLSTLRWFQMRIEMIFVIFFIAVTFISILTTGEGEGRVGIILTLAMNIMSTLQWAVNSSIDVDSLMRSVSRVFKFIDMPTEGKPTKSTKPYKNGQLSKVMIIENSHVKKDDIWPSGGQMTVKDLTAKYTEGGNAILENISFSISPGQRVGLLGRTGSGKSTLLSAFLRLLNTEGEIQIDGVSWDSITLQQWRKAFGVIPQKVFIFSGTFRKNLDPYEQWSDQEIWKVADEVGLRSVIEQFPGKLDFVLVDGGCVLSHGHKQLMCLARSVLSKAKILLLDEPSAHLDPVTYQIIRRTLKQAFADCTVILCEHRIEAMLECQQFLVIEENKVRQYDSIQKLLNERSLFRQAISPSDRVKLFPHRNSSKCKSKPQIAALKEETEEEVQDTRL

CC(C)(C)OC(=O)N1CCC2(CC1)CC(NC(=O)C1(c3ccc4c(c3)OC(F)(F)O4)CC1)c1ccc(F)cc1O2 (stereo not drawn) [Example 92, tert-butyl 4-({[1-(2,2-difluoro-1,3-benzodioxol-5-yl)cyclopropyl]carbonyl}amino)-7-fluoro-3,4-dihydro-1′H-spiro[chromene-2,4′-piperidine]-1′-carboxylate]
EC50: 2570 nM
Emax: 71%

COc1ccc2c(c1)O[C@@H](C(=O)NC(CO)c1ccccc1OC)C[C@H]2NC(=O)C1(c2ccc3c(c2)OC(F)(F)O3)CC1 (mixture of isomers) [Example 178, rac-(2R,4R)-4-({[1-(2,2-difluoro-1,3-benzodioxol-5-yl)cyclopropyl]carbonyl}amino)-N-[2-hydroxy-1-(2-methoxyphenyl)ethyl]-7-methoxy-3,4-dihydro-2H-chromene-2-carboxamide]
EC50: 740 nM
Emax: 64%

O=C(O)C1CCCC([C@H]2C[C@@H](NC(=O)C3(c4ccc5c(c4)OC(F)(F)O5)CC3)c3ccc(F)cc3O2)C1 (stereo partly drawn) [Example 36, 3-[(2R,4R)-4-({[1-(2,2-difluoro-1,3-benzodioxol-5-yl)cyclopropyl]carbonyl}amino)-7-fluoro-3,4-dihydro-2H-chromen-2-yl]cyclohexanecarboxylic acid]
EC50: 1820 nM
Emax: 78%

COC(=O)c1cccc([C@H]2C[C@@H](NC(=O)C3(c4ccc5c(c4)OC(F)(F)O5)CC3)c3ccc(F)cc3O2)c1 [Example 39, methyl 3-[(2R,4R)-4-({[1-(2,2-difluoro-1,3-benzodioxol-5-yl)cyclopropyl]carbonyl}amino)-7-fluoro-3,4-dihydro-2H-chromen-2-yl]benzoate]
EC50: 1720 nM
Emax: 82%

COc1ccc2c(c1)O[C@@H](C(=O)NC1(C(F)(F)F)COC1)C[C@@H]2NC(=O)C1(c2ccc3c(c2)OC(F)(F)O3)CC1 (racemic) [Example 192, rac-(2R,4S)-4-({[1-(2,2-difluoro-1,3-benzodioxol-5-yl)cyclopropyl]carbonyl}amino)-7-methoxy-N-[3-(trifluoromethyl)oxetan-3-yl]-3,4-dihydro-2H-chromene-2-carboxamide]
EC50: 4400 nM
Emax: 29%

COc1ccc2c(c1)O[C@@H](C(=O)O)C[C@H]2NC(=O)C1(c2ccc3c(c2)OC(F)(F)O3)CC1 (racemic) [Example 164, rac-(2R,4R)-4-({[1-(2,2-difluoro-1,3-benzodioxol-5-yl)cyclopropyl]carbonyl}amino)-7-methoxy-3,4-dihydro-2H-chromene-2-carboxylic acid]
EC50: > 20000 nM
Emax: 2%

COc1ccc2c(n1)O[C@@H](c1cccc(C(=O)O)c1)C[C@@H]2NC(=O)C1(c2ccc3c(c2)OC(F)(F)O3)CC1 (racemic) [Example 29, rac-3-[(2R,4S)-4-({[1-(2,2-difluoro-1,3-benzodioxol-5-yl)cyclopropyl]carbonyl}amino)-7-methoxy-3,4-dihydro-2H-pyrano[2,3-b]pyridin-2-yl]benzoic acid]
EC50: 5710 nM
Emax: 106%

CC1(C)CC(NC(=O)C2(c3ccc4c(c3)OC(F)(F)O4)CC2)c2ccc(OC(F)F)cc2O1 (stereo not drawn) [Example 125, 1-(2,2-difluoro-1,3-benzodioxol-5-yl)-N-[7-(difluoromethoxy)-2,2-dimethyl-3,4-dihydro-2H-chromen-4-yl]cyclopropanecarboxamide]
EC50: 2140 nM
Emax: 115%

O=C(O)c1csc([C@H]2C[C@H](NC(=O)C3(c4ccc5c(c4)OC(F)(F)O5)CC3)c3ccccc3O2)n1 (relative stereo) [Example 144, rel-2-[(2R,4S)-4-({[1-(2,2-difluoro-1,3-benzodioxol-5-yl)cyclopropyl]carbonyl}amino)-3,4-dihydro-2H-chromen-2-yl]-1,3-thiazole-4-carboxylic acid]
EC50: > 20000 nM
Emax: 11%

COc1ccc2c(c1)O[C@@H](C(=O)N1CCC(F)(F)CC1)C[C@@H]2NC(=O)C1(c2ccc3c(c2)OC(F)(F)O3)CC1 (racemic) [Example 193, rac-1-(2,2-difluoro-1,3-benzodioxol-5-yl)-N-{(2R,4S)-2-[(4,4-difluoropiperidin-1-yl)carbonyl]-7-methoxy-3,4-dihydro-2H-chromen-4-yl}cyclopropanecarboxamide]
EC50: 470 nM
Emax: 68%

CS(=O)(=O)N1CC2(CC(NC(=O)C3(c4ccc5c(c4)OC(F)(F)O5)CC3)c3ccc(F)cc3O2)C1 (stereo not drawn) [Example 104, 1-(2,2-difluoro-1,3-benzodioxol-5-yl)-N-[7′-fluoro-1-(methylsulfonyl)-3′,4′-dihydrospiro[azetidine-3,2′-chromen]-4′-yl]cyclopropanecarboxamide]
EC50: 6580 nM
Emax: 49%

C[C@@]1(C(F)F)C[C@@H](NC(=O)C2(c3ccc4c(c3)OC(F)(F)O4)CC2)c2ccccc2O1 [Example 82, 1-(2,2-difluoro-1,3-benzodioxol-5-yl)-N-[(2S,4R)-2-(difluoromethyl)-2-methyl-3,4-dihydro-2H-chromen-4-yl]cyclopropanecarboxamide]
EC50: 2720 nM
Emax: 97%

O=C(NC1CC2(CNC2)Oc2cc(F)ccc21)C1(c2ccc3c(c2)OC(F)(F)O3)CC1 (stereo not drawn) [Example 103, 1-(2,2-difluoro-1,3-benzodioxol-5-yl)-N-(7′-fluoro-3′,4′-dihydrospiro[azetidine-3,2′-chromen]-4′-yl)cyclopropanecarboxamide]
EC50: 8530 nM
Emax: 28%

CCOC(=O)c1csc([C@H]2C[C@@H](NC(=O)C3(c4ccc5c(c4)OC(F)(F)O5)CC3)c3ccc(OC)cc3O2)n1 (stereo in doubt) [Example 155, ethyl rel-2-[(2R,4R)-4-({[1-(2,2-difluoro-1,3-benzodioxol-5-yl)cyclopropyl]carbonyl}amino)-7-methoxy-3,4-dihydro-2H-chromen-2-yl]-1,3-thiazole-4-carboxylate]
EC50: 370 nM
Emax: 108%

COc1ccc2c(c1)O[C@@H](C(=O)N(C)C1COC1)C[C@H]2NC(=O)C1(c2ccc3c(c2)OC(F)(F)O3)CC1 (racemic) [Example 176, rac-(2R,4R)-4-({[1-(2,2-difluoro-1,3-benzodioxol-5-yl)cyclopropyl]carbonyl}amino)-7-methoxy-N-methyl-N-(oxetan-3-yl)-3,4-dihydro-2H-chromene-2-carboxamide]
EC50: 9630 nM
Emax: 30%

O=C(OCc1ccccc1)N1CC2(CC(NC(=O)C3(c4ccc5c(c4)OC(F)(F)O5)CC3)c3ccc(F)cc3O2)C1 (stereo not drawn) [Example 100, benzyl 4′-({[1-(2,2-difluoro-1,3-benzodioxol-5-yl)cyclopropyl]carbonyl}amino)-7′-fluoro-3′,4′-dihydro-1H-spiro[azetidine-3,2′-chromene]-1-carboxylate]
EC50: 3080 nM
Emax: 40%

COc1ccc2c(c1)O[C@@H](C1CC1)C[C@H]2NC(=O)C1(c2ccc3c(c2)OC(F)(F)O3)CC1 (racemic) [Example 40, rac-N-[(2R,4R)-2-cyclopropyl-7-methoxy-3,4-dihydro-2H-chromen-4-yl]-1-(2,2-difluoro-1,3-benzodioxol-5-yl)cyclopropanecarboxamide]
EC50: 2680 nM
Emax: 107%

COCCOc1ccc2c(c1)O[C@@H](c1cccc(C(=O)OC)c1)C[C@H]2NC(=O)C1(c2ccc3c(c2)OC(F)(F)O3)CC1 [Example 94, methyl 3-[(2R,4R)-4-({[1-(2,2-difluoro-1,3-benzodioxol-5-yl)cyclopropyl]carbonyl}amino)-7-(2-methoxyethoxy)-3,4-dihydro-2H-chromen-2-yl]benzoate]
EC50: 940 nM
Emax: 119%

COC(=O)c1ccc([C@H]2C[C@@H](NC(=O)C3(c4ccc5c(c4)OC(F)(F)O5)CC3)c3ccc(OC)cc3O2)cc1 [Example 110, methyl 4-[(2R,4R)-4-({[1-(2,2-difluoro-1,3-benzodioxol-5-yl)cyclopropyl]carbonyl}amino)-7-methoxy-3,4-dihydro-2H-chromen-2-yl]benzoate]
EC50: 280 nM
Emax: 115%

COc1ccc2c(c1)OC(c1ccc(Cl)c(Cl)c1)CC2NC(=O)C1(c2ccc3c(c2)OC(F)(F)O3)CC1 (stereo not drawn) [Example 61, N-[2-(3,4-dichlorophenyl)-7-methoxy-3,4-dihydro-2H-chromen-4-yl]-1-(2,2-difluoro-1,3-benzodioxol-5-yl)cyclopropanecarboxamide]
EC50: 2040 nM
Emax: 132%

COc1ccc2c(c1)O[C@@H](C(=O)N1CCOCC1)C[C@@H]2NC(=O)C1(c2ccc3c(c2)OC(F)(F)O3)CC1 (racemic) [Example 196, rac-1-(2,2-difluoro-1,3-benzodioxol-5-yl)-N-[(2R,4S)-7-methoxy-2-(morpholin-4-ylcarbonyl)-3,4-dihydro-2H-chromen-4-yl]cyclopropanecarboxamide]
EC50: 1240 nM
Emax: 67%

COc1ccc2c(c1)O[C@H](c1ccc(OC)c(OC)c1)C[C@@H]2NC(=O)C1(c2ccc3c(c2)OC(F)(F)O3)CC1 [Example 4, 1-(2,2-difluoro-1,3-benzodioxol-5-yl)-N-[(2S,4S)-2-(3,4-dimethoxyphenyl)-7-methoxy-3,4-dihydro-2H-chromen-4-yl]cyclopropanecarboxamide]
EC50: 1190 nM
Emax: 73%

CCOC(=O)c1ccc([C@H]2C[C@H](NC(=O)C3(c4ccc5c(c4)OC(F)(F)O5)CC3)c3ccccc3O2)nc1 (racemic) [Example 149, ethyl rac-6-[(2R,4S)-4-({[1-(2,2-difluoro-1,3-benzodioxol-5-yl)cyclopropyl]carbonyl}amino)-3,4-dihydro-2H-chromen-2-yl]pyridine-3-carboxylate]
EC50: 1530 nM
Emax: 85%

COc1ccc2c(c1)OCC(Cc1ccc(OC)c(OC)c1)C2NC(=O)C1(c2ccc3c(c2)OC(F)(F)O3)CC1 (stereo not drawn) [Example 91, 1-(2,2-difluoro-1,3-benzodioxol-5-yl)-N-[3-(3,4-dimethoxybenzyl)-7-methoxy-3,4-dihydro-2H-chromen-4-yl]cyclopropanecarboxamide]
EC50: 2710 nM
Emax: 82%
